How the values were obtained:
[1] = target: human STING (Homo sapiens, UniProt Q86WV6); assay: Fluorescence Thermal Shift assay (hSTING FTS binding assay); conditions: ΔTm, STING 0.1 mg/mL, SyproOrange, 25 to 99° C.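 Note: STING preincubated with compound for 20 min in HEPES NaCl buffer pH 7.5.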
Protocol: Fluorescence Thermal Shift Assay Compounds of the present invention were tested for binding to human STING in Fluorescence Thermal Shift assay. […] Final STING concentration was 0.1 mg/mL. Thermal unfolding was performed in Real-Time PCR QuantStudio 6 Flex System (Applied Biosystems), from 25 to 99° C., with continuous ramp mode and ramp rate 0.033° C./s. The data were analyzed using Protein Thermal Shift Software (ThermoFisher).

[2] = system: CT26 murine colon carcinoma allografts; assay: In vivo anti-tumor efficacy, CT26 allograft; design: species or system female Balb/C mice; conditions: once every fifth day on three occasions; for response of CT26 tumors to the treatment: intravenously, all dose levels
Protocol: In Vivo Anti-Tumor Efficacy The efficacy of Example 4, Example 31 and Example 57 was evaluated in established CT26 murine colon carcinoma allografts in female Balb/C mice. Compounds were formulated in 5% ethanol with 10% Captisol in PBS and administered intravenously, once every fifth day on three occasions. The solution was prepared fresh prior to each administration. […] By the end of the study there was one complete response among animals treated at 10 mg/kg of Example 4. […] By the end of the study, on day 43, there was one complete response recorded in group treated at 20 mg/kg of Example 57.

[3] = system: interferon regulatory factor (IRF) pathway in THP-1 dual cells; assay: THP-1 Dual reporter assay, IRF pathway (luciferase); format: cell-based; conditions: Homo sapiens, THP1-Dual, 18 h stimulation, luminescence
Protocol: (§1) THP-1 Dual Reporter Assay
(§2) Compounds of the present invention were tested for their activity using THP-1 dual cells (Invivogen, cat no. thpd-nfis) allowing for simultaneous study of NF-κB pathway and the interferon regulatory factor (IRF) pathway. THP-1 dual cells contain luciferase reporter gene under the control of an ISG54 (interferon-stimulated gene) minimal promoter in conjunction with five interferon-stimulated response elements and a secreted embryonic alkaline phosphatase reporter gene under the control an IFN (interferon)-β minimal promoter fused to five copies of the NF-κB consensus transcriptional response element with three copies of the c-Rel binding site. Following 18 h of stimulation with STING agonist, medium was collected and transferred onto fresh cell culture plate. To verify activity of the IRF pathway, luminescence activity was measured with standard laboratory plate reader immediately after addition 10 μl of the medium to 40 or 50 μl of luminescence reagent (Invivogen, cat. No. rep-qlc2). To verify activity of NF-κB pathway, 10 or 20 μl of the medium was mixed with 80 μl of a detection medium (Invivogen, cat. No. rep-qb2) and incubated for 1 or 2 hours at 37° C. in a humidified atmosphere containing 5% CO2. Next, absorbance at 630 or 655 nm was recorded using standard laboratory plate reader.

[4] = system: NF-κB pathway in THP-1 dual cells; assay: THP-1 Dual reporter assay, NF-κB pathway (SEAP); format: cell-based; conditions: Homo sapiens, THP1-Dual, 18 h stimulation, absorbance at 630 or 655 nm, read-out: THP1 Dual EC50 (μM) NFkB
Protocol: as §1, §2

human STING, sequence (Q86WV6 whole entry H232R): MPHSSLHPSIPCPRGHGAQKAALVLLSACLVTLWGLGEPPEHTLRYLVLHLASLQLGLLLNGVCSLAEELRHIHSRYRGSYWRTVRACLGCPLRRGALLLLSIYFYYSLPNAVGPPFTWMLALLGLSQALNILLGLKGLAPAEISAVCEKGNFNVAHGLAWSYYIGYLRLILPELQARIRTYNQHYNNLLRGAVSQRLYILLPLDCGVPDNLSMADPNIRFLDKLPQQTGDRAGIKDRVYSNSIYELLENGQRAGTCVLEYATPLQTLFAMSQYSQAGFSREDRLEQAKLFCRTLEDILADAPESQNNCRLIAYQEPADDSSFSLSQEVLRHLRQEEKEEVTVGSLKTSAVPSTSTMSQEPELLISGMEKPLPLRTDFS

hSTING FTS binding assay (ΔT ° C.) [1] | EC50 [3] [µM] | EC50 [4] [µM] | Structure (SMILES) | tumor growth effect compared to the control group ([2]; 5 mg/kg intravenously) | tumor growth effect compared to the control group ([2]; 10 mg/kg intravenously) | tumor growth effect compared to the control group ([2]; 20 mg/kg intravenously) | complete responses by the end of the study ([2]; 20 mg/kg intravenously, day 43) | dose dependence of the tumor response ([2]; 5, 10 and 20 mg/kg intravenously) | response of CT26 tumors to the treatment [2] | tumor growth effect compared to the control group ([2]; 7 mg/kg intravenously) | complete responses by the end of the study ([2]; 10 mg/kg intravenously) | tumor growth effect compared to the control group ([2]; 15 mg/kg intravenously) | tumor growth effect compared to the control group ([2]; 30 mg/kg intravenously) | complete responses by the end of the study ([2]; 30 mg/kg intravenously, day 43)
+++ (ΔTm≥20° C.) | – | – | Cc1ccc(N2CCC[C@H](N(Cc3ccnc(C)c3)Cc3cn(C4CC4)c4cc(N5CC[C@H](N)C(F)(F)C5)c(F)cc4c3=O)C2)cn1.Cl (single isomer, unassigned) [Example 57] | minimal tumor growth delay | moderately efficacious | full efficacious | one | dose dependent manner | responded prominently | – | – | – | – | –
+++ (ΔTm≥20° C.) | – | – | COc1cc(CN(Cc2cn(C3CC3)c3cc(F)c(F)cc3c2=O)[C@H]2CCCN(c3ccc(N)nc3)C2)ccn1.Cl [Example 4, 3-({[(3S)-1-(6-Aminopyridin-3-yl)piperidin-3-yl][(2-methoxypyridin-4-yl)methyl]amino}methyl)-1-cyclopropyl-6,7-difluoro-1,4-dihydroquinolin-4-one Hydrochloride] | – | efficacious and caused tumor growth delay or significant decrease of the tumor size | – | – | – | responded prominently | efficacious and caused tumor growth delay or significant decrease of the tumor size | one | – | – | –
+++ (ΔTm≥20° C.) | – | – | Cc1ccc(N2CCC[C@H](N(Cc3ccnc(C)c3)Cc3cn(C4CC4)c4cc(N5CCC[C@H](O)C5)c(F)cc4c3=O)C2)cn1.Cl [Example 31, 1-cyclopropyl-6-fluoro-7-[(3S)-3-hydroxypiperidin-1-yl]-3-({[(3S)-1-(6-methylpyridin-3-yl)piperidin-3-yl][(2-methylpyridin-4-yl)methyl]amino}methyl)-1,4-dihydroquinolin-4-one Hydrochloride] | – | – | – | – | – | responded prominently | slight tumor growth delay | – | prominently efficacious | prominently efficacious | two
++ (10<ΔTm<20° C.) | ≤ 1 | ≤ 1 | Cc1cc(CN(Cc2cn(C3CC3)c3cc(OCCO)c(F)cc3c2=O)[C@H]2CCCN(c3cnccn3)C2)ccn1.Cl [Example 85, 1-cyclopropyl-6-fluoro-7-(2-hydroxyethoxy)-3-({[(2-methylpyridin-4-yl)methyl][(3S)-1-(pyrazin-2-yl)piperidin-3-yl]amino}methyl)-1,4-dihydroquinolin-4-one Hydrochloride] | – | – | – | – | – | – | – | – | – | – | –

From patent US12655124B2, “Heterocyclic compounds as modulators of stimulator of interferon genes (STING)” (RYVU THERAPEUTICS S.A., priority 2019, dated 2026)
